For 15 compounds, GI50 and TGI results are on record in PubChem BioAssay (NCI).

Each structure is given as a SMILES string. Where “and” joins values, the source holds several entries; their conditions need not be identical. Equal values may be shown once.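 In this assay, cells in 96-well plates receive the compound at five concentrations for 48 hours. Endpoints are linearly interpolated between the surrounding concentrations. GI50 = concentration required for 50% inhibition of growth. TGI: concentration producing complete growth inhibition.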

Assay in all cases: NCI anticancer screen, dose series, 48 h
The test system of assay [1] is NCI/ADR-RES ovarian.
Assay [2] has as its system DU-145 prostate.
In assay [3] the test system is CCRF-CEM leukemia.
Assay [4] deals with 786-0 renal.
For assay [5], the system named is COLO 205 colon.
Assay [6] relates to RXF 393 renal.
Assay [7] has as its system CAKI-1 renal.
For assay [8], the system named is NCI-H460 lung.
Assay [9] relates to U251 CNS.
Assay [10] has as its system SF-295 CNS.

With `COc1cc(-c2c(C#N)c(N)nc(N3CCOCC3)c2C#N)cc(OC)c1OC`, the GI50 is greater than 100 µM in assay [1]; greater than 100 µM in assay [2]; greater than 100000 nM in [3]; greater than 100000 nM in assay [4]; 5390 nM in assay [5]; greater than 100000 nM in assay [6]. For the same compound, the GI50 in assay [7] is greater than 100 µM; in assay [8], greater than 100000 nM; in [9] it was greater than 100 µM; in assay [10], greater than 100000 nM. Besides, the TGI in [1], in [2], in assay [3], in assay [4], in assay [5] and in assay [6] was greater than 100 µM throughout. Moreover, the TGI in assay [7], in assay [8], in assay [9] and in assay [10] was greater than 100 µM each time.

`CN(C)c1ccc(/C=C/C2=[N+](C)c3ccccc3C2(C)C)cc1`: the GI50 is 13.7 µM in assay [1]; 0.453 µM in assay [2]; 456 nM in [3]; 2060 nM in [4]; 505 nM in assay [5]; 2260 nM in assay [6]. Moreover, the GI50 in assay [7] is 4.69 µM; in [8] it was 746 nM; in assay [9], 0.353 µM; in [10] it was 1120 nM. Also, the TGI in [1] was greater than 100 µM; in assay [2], 23.9 µM; in [3], greater than 100 µM; in assay [4], 18.9 µM; in assay [5] it was 2.07 µM; in assay [6], 16.8 µM. For the same compound, the TGI in assay [7] is greater than 100 µM; in assay [8], 10.7 µM; in assay [9] it was 12.6 µM; in assay [10] it was 6.64 µM.

As for `COc1cc(C(=O)N/N=C/c2ccc(N(C)C)cc2)cc(OC)c1OC`, the GI50 is 0.337 µM in assay [1]; 0.415 µM in assay [2]; 344 nM in assay [3]; 660 nM in assay [4]; 406 nM in assay [5]; 234 nM in [6]. Moreover, the GI50 in [7] was 3.7 µM; in assay [8], 376 nM; in [9] it was 0.436 µM; in assay [10], 288 nM. For the same compound, the TGI was 1.6 µM in [1]; 2.79 µM in [2]; greater than 100 µM in [3]; greater than 100 µM in [4]; 1.64 µM in assay [5]; greater than 100 µM in [7]. Moreover, the TGI was 31.7 µM in [8] and greater than 100 µM in assay [9].

Consider `O=C(Nc1ccc(/C=C/c2ccc(NC(=O)c3cc(S(=O)(=O)O)c4cccnc4c3O)cc2S(=O)(=O)O)c(S(=O)(=O)O)c1)c1cc(S(=O)(=O)O)c2cccnc2c1O`, for which the GI50 in assay [1] was greater than 56.2 µM; in assay [2], 17.7 µM; in [3], 3150 nM; in assay [4] it was 4860 nM; in assay [5] it was 19900 nM; in assay [6] it was 20900 nM. Besides, the GI50 in [7] was 34.3 µM; in assay [8] it was 22900 nM; in [9], 3.32 µM; in assay [10] it was 34400 nM. Also, the TGI in assay [1] was greater than 100 µM; in [2], greater than 50.7 µM; in assay [3] it was greater than 29.1 µM; in assay [4], greater than 54.5 µM; in assay [5], greater than 57.5 µM; in [6] it was greater than 53.6 µM. Further, the TGI was greater than 75.2 µM in assay [7], greater than 76.9 µM in [8], greater than 22.4 µM in assay [9] and greater than 76.8 µM in assay [10].

Regarding `O=C1c2ccccc2-c2c1c1ccccc1c(=O)n2CCCNCCCCNCCCN1C(=O)c2ccccc2C2C(=O)c3ccccc3C21` (stereo not drawn), the GI50 in [1] is 0.859 µM; in assay [2], 0.127 µM; in assay [3] it was 29.1 nM; in [4] it was 78.6 nM; in assay [5] it was 681 nM; in assay [6], 30.5 nM. Moreover, the GI50 was 0.447 µM in assay [7], 42.6 nM in assay [8], 0.0756 µM in assay [9] and 64.7 nM in assay [10]. The TGI came out at 2.63 µM in assay [1]; 0.837 µM in [2]; 0.766 µM in assay [3]; 0.782 µM in assay [4]; 1.61 µM in assay [5]; 0.823 µM in assay [6]. Moreover, the TGI in [7] stood at 1.13 µM; in assay [8], 2.39 µM; in assay [9], 0.767 µM; in assay [10], 0.872 µM.

For the compound `COc1cc([C@@H]2C[C@H]2c2cc(SC)n[nH]2)cc(OC)c1OC`, the GI50 in assay [1] was 17.6 µM; in assay [2] it was 17.7 µM; in assay [3], 19400 nM; in [4], 18000 nM; in [5] it was 20500 nM; in assay [6], 48.3 nM. The GI50 in [7] is 15.6 µM; in assay [8], 17700 nM; in assay [9], 79.3 µM; in assay [10] it was 10900 nM. The TGI in assay [1] was 49.3 µM; in assay [2], greater than 100 µM; in assay [3], greater than 100 µM; in assay [4] it was 44.6 µM; in assay [5] it was 70 µM; in assay [6], 5.7 µM. Also, the TGI in [7] is 37.9 µM; in assay [8], 41.7 µM; in [9], greater than 100 µM; in [10], 28.5 µM.

As for `CCCCCCCCC(=O)OCC(CS[As](C)C)OC(=O)CCCCCCCC` (stereo not drawn), the GI50 in assay [1] was 0.89 µM; in assay [2] it was 0.747 µM; in assay [3] it was 396 nM; in assay [4] it was 1160 nM; in assay [5], 557 nM; in assay [6] it was 548 nM. Also, the GI50 was 0.22 µM in assay [7], 21700 nM in assay [8], 2.45 µM in assay [9] and 3660 nM in [10]. In addition, the TGI in [1] is 3.07 µM; in assay [2] it was 2.64 µM; in assay [3], 11.5 µM; in assay [4], greater than 40.1 µM; in [5], 24.8 µM; in [6], 10.7 µM. In addition, the TGI amounted to 1.12 µM in [7], 58.3 µM in assay [8], 13 µM in [9] and 19.4 µM in [10].

Consider `COc1ccc(C2C(C)C(=O)C(C)C(c3ccc(OC)cc3)N2N=O)cc1` (stereo not drawn), for which the TGI was greater than 1000 µM in [1]; 637 µM in assay [2]; greater than 1000 µM in assay [3]; 467 µM in assay [4]; greater than 750 µM in assay [5]; 64.8 µM and 216 µM and 122 µM in [6]. For the same compound, the TGI in assay [7] was 750 µM and 577 µM; in assay [8], greater than 1000 µM; in assay [9], 750 µM and 428 µM; in assay [10] it was 491 µM. Moreover, the GI50 was greater than 750000 nM in [5]; 20700 nM and 67600 nM in [6]; 50.1 µM in [7]; greater than 750000 nM in assay [8]; 35 µM and 85.9 µM in assay [9]; 20700 nM in assay [10].

As to `C[C@@H](Oc1ccc(C(=O)NS(=O)(=O)C(C)(C)C)cc1C(F)(F)F)c1ccc(Oc2ccccc2)cn1`, the GI50 is 3.7 µM in assay [1]; 3.82 µM in assay [2]; 2520 nM in assay [3]; 3010 nM in [4]; 2670 nM in assay [5]; 2250 nM in [6]. The GI50 in [7] is 2.7 µM; in [8] it was 3700 nM; in assay [9] it was 3.18 µM; in assay [10], 2210 nM. Moreover, the TGI in assay [1] turned out to be 17.2 µM; in assay [2], 14.3 µM; in assay [3] it was 16.4 µM; in assay [4] it was 13 µM; in assay [5] it was 7.95 µM; in assay [6], 8.95 µM. In addition, the TGI in [7] is 17.7 µM; in assay [8], 13.3 µM; in assay [9], 13.6 µM; in assay [10] it was 6.89 µM.

As to `Cc1ccc2c(c1)S(=O)(=O)c1ccc3ccccc3c1N2`, the TGI in assay [1], in assay [2], in assay [3], in [4], in assay [5] and in assay [6] was greater than 100 µM in each case. Further, the TGI in assay [7], in assay [8], in assay [9] and in assay [10] was greater than 100 µM in each case.

As to `COc1cc(/C=C/C(=O)N2CCN(C(=O)c3cc(OC)c(OC)c(OC)c3)CC2)ccc1OCCCOc1cc2c(cc1OC)C(=O)N1CCC[C@H]1C=N2`, the GI50 in assay [1] was 11.4 µM; in assay [2] it was 0.351 µM; in assay [3], 83.2 nM; in assay [4], 491 nM; in assay [5], 190 nM; in [6], 334 nM. In addition, the figures for the GI50 in assay [7], in assay [8] and in assay [9] were 1.54 µM, 333 nM and 0.227 µM, respectively. The TGI in [1] was greater than 95 µM; in assay [2], 11.5 µM; in [3] it was greater than 100 µM; in assay [4], 10.6 µM; in assay [5], 0.476 µM; in [6], 3.68 µM. Also, the TGI was determined as 6.08 µM in [7], 10.3 µM in assay [8], 6.06 µM in [9] and 0.875 µM in assay [10].

Consider `COc1ccc(-n2ccnc2-c2cc(OC)c(OC)c(OC)c2)cc1`, for which the GI50 was 1.85 µM in assay [1]; 6.66 µM in assay [2]; 2990 nM in assay [3]; 5650 nM in [4]; 1330 nM in assay [5]; 1870 nM in assay [6]. Further, the GI50 in assay [7] is 1.28 µM; in assay [8], 2370 nM; in [9], 3.98 µM; in [10] it was 1990 nM. For the same compound, the TGI was 7.82 µM in assay [1]; greater than 100 µM in [2]; greater than 100 µM in assay [3]; greater than 100 µM in [4]; 5.74 µM in [5]; 11.9 µM in [6]. Further, the TGI is 7.69 µM in assay [7], greater than 100 µM in assay [8], greater than 100 µM in [9] and 8.35 µM in assay [10].

As for `Cn1c(=O)c(Oc2ccc(F)cc2F)cc2cnc(NC3CCS(=O)(=O)CC3)nc21`, the GI50 in assay [1] is greater than 25 µM; in [2] it was greater than 25 µM; in assay [3], greater than 25000 nM; in assay [4], greater than 25000 nM; in [5] it was greater than 25000 nM; in assay [6], greater than 25000 nM. In addition, the GI50 in [7] is greater than 25 µM; in [8], greater than 25000 nM; in assay [9], greater than 25 µM; in [10] it was greater than 12400 nM. Also, the TGI in [1], in [2], in assay [3], in assay [4], in assay [5] and in assay [6] was greater than 25 µM each time. Also, the TGI in assay [7], in [8], in assay [9] and in assay [10] was greater than 25 µM throughout.

As for `CCCCCCCCn1ccc2cc(NC(=O)Cn3cc(CN4CCCCC4)nn3)ccc21`, the GI50 was 2.92 µM in [1]; 4.1 µM in [2]; 2010 nM in assay [3]; 1800 nM in assay [4]; 1840 nM in assay [5]; 1460 nM in assay [6]. Further, the GI50 was 1.52 µM in assay [7], 1890 nM in [8], 1.78 µM in [9] and 1810 nM in assay [10]. Moreover, the TGI was determined as 10.2 µM in [1]; 14.4 µM in assay [2]; 7.74 µM in [3]; 3.44 µM in assay [4]; 3.68 µM in [5]; 3.06 µM in assay [6]. Also, the TGI amounted to 2.99 µM in assay [7], 3.67 µM in [8], 3.34 µM in assay [9] and 3.65 µM in assay [10].

With `CC(=O)OC12COC1CC(O)C1(C)C(=O)C(O)C3=C(C)C(O)CC(O)(C(OC(=O)c4ccccc4)C21)C3(C)C` (stereo not drawn), the TGI was greater than 100 µM in assay [1]; greater than 100 µM in [2]; greater than 100 µM in assay [3]; greater than 100 µM in [4]; 5.29 µM in [5]; greater than 100 µM in [6]. The TGI is greater than 100 µM in assay [7], greater than 100 µM in assay [8], greater than 74.3 µM in assay [9] and greater than 100 µM in assay [10].
